PubChem BioAssay (NCI)
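Exposure lasted 48 hours, with cells grown in 96-well plates and compounds tested at five concentrations. TGI denotes the concentration required for complete inhibition of growth.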 Where a SMILES comes first, the peptide text is derived from it. [ ]: non-standard residue; d: D form. The star is where a group is joined. NMeAc5c = CNC1(C(=O)O)CCCC1; Boc = CC(C)(C)OC(=O)*; OBn = c1ccc(CO*)cc1

System: HOP-62 NSCLC
Experiment: inhibition of tumour cell growth, NCI panel, 48 h

Point of comparison: `CCCN(C(=O)c1ccccc1)C(C#N)c1ccc(C(C#N)N(CCC)C(=O)c2ccccc2)cc1` (stereo not drawn), TGI 99.3 µM. Against it:
- NC(N)=N/N=C/c1c(-c2ccc(N)cc2)nc2sccn12 — within 1.5-fold, 79 µM
- CCCCCCc1cc2cc(-c3csc(CC#N)n3)c(=O)oc2cc1O — higher, > 100 µM
- COc1cc(Br)cc2cc(-c3cn4ccsc4n3)c(=O)oc12 — higher, > 100 µM
- Nn1c(-c2ccccc2)nn(C(=O)c2ccccc2)c1=O — higher, > 100 µM
- O=c1[nH]c(Nc2cccc(CC(F)(F)F)c2)nc2nc[nH]c12 — higher, > 100 µM
- Nc1nc(SCCc2ccccc2)c2[nH]cnc2n1 — higher, > 100 µM
- COc1ccc(C2CC(c3c(O)ccc4ccccc34)=NN2C(C)=O)cc1OC (stereo not drawn) — within 1.5-fold, 94.4 µM
- COc1cc2c(c(OC)c1OC)C(=O)[C@@H]1[C@H]2N1C(N)=O — higher, > 100 µM
- COc1ccc2cc(NC(=O)N/N=C\c3ccc([N+](=O)[O-])cc3)ccc2c1 — 2-fold lower, 48.5 µM
- CN1CCc2cc(N)cc3c2C1Cc1ccc(O)c(O)c1-3 (stereo not drawn) — higher, > 100 µM
- O=C1CCCSC(=O)N1Cc1ccccc1 — higher, > 100 µM
- COC(=O)c1c(C)cccc1C1CN=NC12Cc1ccc(C)cc1C2=O (stereo not drawn) — higher, > 100 µM
- COC(=O)c1ccccc1CC1Cc2ccc3c(c2C1=O)CCCC3 (stereo not drawn) — higher, > 100 µM
- c1ccc(N=c2sc3ccccc3nc2Nc2ccccc2)cc1 — higher, > 100 µM
- CCOC(=O)c1csc(NC(=O)CN2CCOCC2)n1 — higher, > 100 µM
- O=C1/C(=C/c2ccccc2)N=C2Sc3c(nc[nH]c3=O)N12 — higher, > 100 µM
- C=CC1(C)CCC2C(=CCC3C2(C)CC(O)C(O)C3(C)COC2OC(C(=O)O)C(O)C(O)C2O)C1 (stereo not drawn) (tested in a mixture with another compound) — higher, > 100 µM
- N#Cc1c(N2CCCC2)ncn(-c2ccccc2)c1=O — higher, > 100 µM
- N#CC1(C#N)N[C@@H](c2ccsc2)[C@H]2C(=O)N(c3ccccc3)C(=O)[C@H]21 — higher, > 100 µM
- O=[N+]([O-])c1ccc2c(c1)/C(=N/N=C1c3ccccc3Cc3ccccc31)c1cc([N+](=O)[O-])cc([N+](=O)[O-])c1-2 — 14-fold lower, 7.01 µM
- CN(C(=O)C(Cc1ccccc1)NC(=O)OC(C)(C)C)C1(C(=O)NC(Cc2ccccc2)C(=O)OCc2ccccc2)CCCC1 (stereo not drawn) (Boc-Phe-[NMeAc5c]-Phe-OBn; configuration not given here) — higher, > 100 µM
- Cc1ccc([N+](=O)[O-])cc1NC1=NCCO1 — higher, > 100 µM
- O=c1ccc(-c2ccccc2)n[nH]1 — higher, > 100 µM
- CCOC(=O)C(SCCO)C(C(=O)OCC)n1cnc2c(=O)[nH]c(NC(C)=O)nc21 (stereo not drawn) — higher, > 100 µM
- C#CCNC(CS)C(=O)O (stereo not drawn) — higher, > 100 µM
- Cc1ccc(N=NC(=Nc2ccccc2)c2ccc(N(CCC#N)CCC#N)cc2)cc1 — higher, > 100 µM
- Cc1ccccc1C(=O)N1CCc2c([nH]c3ccccc23)C1 — higher, > 100 µM
- NC(=O)NCCCC(NC(=O)OCCCCn1ccc(=O)[nH]c1=O)C(=O)O (stereo not drawn) — higher, > 100 µM
- NS(=O)(=O)c1ccc2c(c1)OCCOCCOCCOCCO2 — higher, > 100 µM
- CCOC(=O)/C=C/CC(C)(C)CCOC(C)=O — not separable, > 10 µM
- COC(=O)C([C@H](NC1(c2ccccc2)c2ccccc2-c2ccccc21)C(=O)OC)N(NC(=O)OCc1ccccc1)C(=O)OCc1ccccc1 (mixture of isomers) — higher, > 100 µM

System: T-47D breast
Experiment: inhibition of tumour cell growth, NCI panel, 48 h

Point of comparison: `CCCN(C(=O)c1ccccc1)C(C#N)c1ccc(C(C#N)N(CCC)C(=O)c2ccccc2)cc1` (stereo not drawn), TGI 85.7 µM. Against it:
- COc1cc(C(=O)N(C(=S)OCc2ccccn2)c2ccccc2)cc(OC)c1OC — higher, > 100 µM
- CCCCCCCCCCCCCCNC(=O)CCC(NC(=O)c1ccc(N(C)Cc2cnc3nc(N)nc(N)c3n2)cc1)C(=O)NCCCCCCCCCCCCCC (stereo not drawn) — 2.2-fold lower, 38.5 µM
- COc1ccc(N/N=C2\CCOc3ccc(C)cc3C2=O)cc1 — 2-fold lower, 42.4 µM
- NC(N)=N/N=C/c1c(-c2ccc(N)cc2)nc2sccn12 — within 1.5-fold, 90.3 µM
- CCCCCCc1cc2cc(-c3csc(CC#N)n3)c(=O)oc2cc1O — higher, > 100 µM
- COc1cc(Br)cc2cc(-c3cn4ccsc4n3)c(=O)oc12 — higher, > 100 µM
- Nn1c(-c2ccccc2)nn(C(=O)c2ccccc2)c1=O — higher, > 100 µM
- O=c1[nH]c(Nc2cccc(CC(F)(F)F)c2)nc2nc[nH]c12 — higher, > 100 µM
- Nc1nc(SCCc2ccccc2)c2[nH]cnc2n1 — higher, > 100 µM
- COc1ccc(C2CC(c3c(O)ccc4ccccc34)=NN2C(C)=O)cc1OC (stereo not drawn) — higher, > 100 µM
- COc1cc2c(c(OC)c1OC)C(=O)[C@@H]1[C@H]2N1C(N)=O — higher, > 100 µM
- COc1ccc2cc(NC(=O)N/N=C\c3ccc([N+](=O)[O-])cc3)ccc2c1 — higher, > 100 µM
- C[C@@H]1CC[C@]2(C(=O)O)CC[C@]3(C)C(=CC[C@@H]4[C@@]5(C)CC[C@H](O)C(C)(C)[C@@H]5CC[C@]43C)[C@@H]2[C@]1(C)O — 2.6-fold lower, 32.9 µM
- CN1CCc2cc(N)cc3c2C1Cc1ccc(O)c(O)c1-3 (stereo not drawn) — higher, > 100 µM
- O=C1CCCSC(=O)N1Cc1ccccc1 — higher, > 100 µM
- COC(=O)c1c(C)cccc1C1CN=NC12Cc1ccc(C)cc1C2=O (stereo not drawn) — 1.7-fold lower, 49.8 µM
- COC(=O)c1ccccc1CC1Cc2ccc3c(c2C1=O)CCCC3 (stereo not drawn) — not separable, > 78.1 µM
- c1ccc(N=c2sc3ccccc3nc2Nc2ccccc2)cc1 — higher, > 100 µM
- CCOC(=O)c1csc(NC(=O)CN2CCOCC2)n1 — higher, > 100 µM
- O=C1/C(=C/c2ccccc2)N=C2Sc3c(nc[nH]c3=O)N12 — higher, > 100 µM
